Laboratory results reported in PubChem BioAssay (NCI).
Where “and” joins values, the source holds several entries; their conditions need not be identical. Equal values may be shown once.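 Five compound concentrations were applied to cells in 96-well plates for 48 hours; endpoints were derived by simple linear interpolation of the resulting dose-response curve. The concentration for 50% growth inhibition is given as GI50. TGI denotes the concentration required for complete inhibition of growth.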

Assays:
Assay in all cases: DTP human tumour cell line panel, 48 h
[1] = system: HS 578T breast
[2] = system: MDA-MB-231 breast
[3] = system: SF-295 CNS
[4] = system: UACC-257 melanoma
[5] = system: OVCAR-5 ovarian
[6] = system: CCRF-CEM leukemia
[7] = system: LOX IMVI melanoma
[8] = system: NCI-H23 lung
[9] = system: NCI/ADR-RES ovarian
[10] = system: OVCAR-3 ovarian

Molecule `COc1cc(OC)cc(-c2nc3sccn3c2/C=N/N=C(N)N)c1` has a GI50 [1] of 12.6 µM, a TGI [1] of 25.3 µM and a GI50 [2] of 6.91 µM. It also gave a TGI [2] of 13.6 µM, a GI50 [3] of 8.94 µM and a TGI [3] of 17.7 µM. It also gave a GI50 [4] of 7.74 µM, a TGI [4] of 16.1 µM and a GI50 [5] of 7.25 µM. It also gave a TGI [5] of 13.8 µM, a GI50 [6] of 10.9 µM and a TGI [6] of 19.5 µM. The GI50 [7] was 6.49 µM, the TGI [7] was 12.8 µM and the GI50 [8] was 7.9 µM. The TGI [8] was 15.6 µM, the GI50 [9] was 26.4 µM and the TGI [9] was > 50 µM. For the same molecule, the GI50 [10] was 5.52 µM and the TGI [10] was 12.3 µM.

In the case of `CC(=O)O[C@@]12CO[C@@H]1C[C@H](O)[C@@]1(C)C(=O)[C@H](O)C3=C(C)[C@@H](OC(=O)[C@H](O)[C@@H](NC(=O)OC(C)(C)C)c4ccccc4)C[C@@](O)([C@@H](OC(=O)c4ccccc4)C12)C3(C)C` (stereo partly specified), the GI50 [1] was < 0.005 µM, the TGI [1] was 23.5 µM and > 100 µM and the GI50 [2] was 0.00751 µM and 0.0717 µM. The TGI [2] was 28 µM and > 100 µM, the GI50 [3] was 0.016 µM and the TGI [3] was 50 µM and 16.8 µM. The GI50 [4] was 32.3 µM, the TGI [4] was > 100 µM and the TGI [5] was 89.2 µM. The GI50 [6] was < 0.005 µM, the TGI [6] was 29.3 µM and 60.8 µM and the TGI [7] was 79 µM. The GI50 [8] was < 0.005 µM, the TGI [8] was 50 µM and the GI50 [9] was 0.35 µM and 2.05 µM. For the same molecule, the TGI [9] was 2.77 µM and 15.4 µM and the GI50 [10] was < 0.005 µM.

For `CCOc1cc(C(=O)O)c2c(ccc3ccc(OC)c(OC)c32)c1OC`, the TGI [1] was > 100 µM, the TGI [2] was > 100 µM and the TGI [3] was > 100 µM. For the same molecule, the TGI [4] was > 100 µM, the TGI [5] was > 100 µM and the TGI [6] was > 100 µM. The TGI [7] was > 100 µM, the TGI [8] was > 100 µM and the TGI [9] was > 100 µM. The TGI [10] was > 100 µM.

`Nc1ncn(C2OC(COP(=O)(O)O)C(O)C2O)c(=O)n1` (stereo unspecified) was tested, and the TGI [1] was > 100 µM, the TGI [2] was > 100 µM and the TGI [3] was > 100 µM. The TGI [4] was > 100 µM, the TGI [5] was > 100 µM and the TGI [6] was > 52.4 µM. The TGI [7] was > 100 µM, the TGI [8] was > 100 µM and the TGI [9] was > 100 µM. For the same molecule, the TGI [10] was > 100 µM.

In the case of `Cc1cc(C(=O)Nc2cc(Oc3ccc4nc(NC(=O)C5CC5)cn4n3)ccc2C)n(C)n1`, the GI50 [1] was 7.48 µM, the TGI [1] was > 10 µM and the GI50 [2] was > 10 µM. For the same molecule, the TGI [2] was > 10 µM, the GI50 [3] was > 10 µM and the TGI [3] was > 10 µM. The GI50 [4] was > 10 µM, the TGI [4] was > 10 µM and the GI50 [5] was > 10 µM. For the same molecule, the TGI [5] was > 10 µM, the GI50 [6] was > 10 µM and the TGI [6] was > 10 µM. The GI50 [7] was > 10 µM, the TGI [7] was > 10 µM and the GI50 [8] was > 10 µM. For the same molecule, the TGI [8] was > 10 µM, the GI50 [9] was > 10 µM and the TGI [9] was > 10 µM. The GI50 [10] was > 10 µM and the TGI [10] was > 10 µM.

In the case of `COC12C=C/C(=C(/C(=O)OCCSc3ccnn3C)C(=O)CCCCCCCCC3(OC)C=C/C(=C(/C(=O)OCCSc4ccnn4C)C(=O)CCCCCCCC1)O3)O2`, the GI50 [1] was 1.23 µM, the TGI [1] was > 32.5 µM and the GI50 [2] was 1.05 µM. For the same molecule, the TGI [2] was 3.06 µM, the GI50 [3] was 0.948 µM and the TGI [3] was 2.93 µM. For the same molecule, the GI50 [4] was 1.35 µM, the TGI [4] was 11.4 µM and the GI50 [5] was 1.73 µM. For the same molecule, the TGI [5] was > 32.5 µM, the GI50 [6] was 1.09 µM and the TGI [6] was > 32.5 µM. It also gave a GI50 [7] of 0.573 µM, a TGI [7] of 1.18 µM and a GI50 [8] of 0.854 µM. The TGI [8] was 2.37 µM, the GI50 [9] was 1.64 µM and the TGI [9] was > 32.5 µM. It also gave a GI50 [10] of 0.966 µM and a TGI [10] of 2.77 µM.

`CC(CN(C)C)S(=O)(=O)c1ccc(-c2cnc(N)c(C(=O)Nc3ccccc3)n2)cc1` (stereo unspecified) gave a GI50 [1] of 2.41 µM, a TGI [1] of 27 µM and a GI50 [2] of 10.6 µM. The TGI [2] was 27.6 µM, the GI50 [3] was 8.49 µM and the TGI [3] was 25.7 µM. It also gave a GI50 [4] of 2.04 µM, a TGI [4] of 5.06 µM and a GI50 [5] of 11.8 µM. For the same molecule, the TGI [5] was 34.5 µM, the GI50 [6] was 2.61 µM and the TGI [6] was 29.6 µM. It also gave a GI50 [7] of 2.82 µM, a TGI [7] of 16.7 µM and a GI50 [8] of 3.05 µM. For the same molecule, the TGI [8] was 24.7 µM, the GI50 [9] was 5.2 µM and the TGI [9] was > 100 µM. The GI50 [10] was 5.83 µM and the TGI [10] was 32.9 µM.

`Clc1ccccc1[C@@H]1C[C@@H]2Cc3cc(Br)c4ccccc4c3N1O2` gave a GI50 [1] of 3.04 µM, a TGI [1] of 8.82 µM and a GI50 [2] of 10.4 µM. The TGI [2] was > 100 µM, the GI50 [3] was 3.49 µM and the TGI [3] was > 100 µM. For the same molecule, the GI50 [4] was 3.77 µM, the TGI [4] was > 100 µM and the GI50 [5] was 16.9 µM. For the same molecule, the TGI [5] was > 100 µM, the GI50 [6] was 4.87 µM and the TGI [6] was > 100 µM. The GI50 [7] was 6.28 µM, the TGI [7] was > 100 µM and the GI50 [8] was 8.33 µM. The TGI [8] was > 100 µM, the GI50 [9] was 2.75 µM and the TGI [9] was > 100 µM. It also gave a GI50 [10] of 3.29 µM and a TGI [10] of 11.1 µM.

With `CC(=O)NNc1nc(C)c(C(/C=C/c2ccc([N+](=O)[O-])cc2)=N/NC(N)=O)s1` the TGI [1] was > 100 µM, the TGI [2] was > 100 µM and the TGI [3] was > 100 µM. The TGI [4] was > 100 µM, the TGI [5] was > 100 µM and the TGI [6] was > 100 µM. The TGI [7] was > 100 µM, the TGI [8] was > 100 µM and the TGI [9] was > 100 µM. For the same molecule, the TGI [10] was > 100 µM.

For `Cc1ccc(-c2c(C#N)[n+](=O)c3cc(F)c(F)cc3n2[O-])cc1`, the GI50 [1] was 25.3 µM, the TGI [1] was > 100 µM and the GI50 [2] was 1.81 µM. The TGI [2] was 3.98 µM, the GI50 [3] was 2.01 µM and the TGI [3] was 5.27 µM. For the same molecule, the GI50 [4] was 23.5 µM, the TGI [4] was 48.7 µM and the GI50 [5] was 3.91 µM. For the same molecule, the TGI [5] was 15.9 µM, the GI50 [6] was 1.6 µM and the TGI [6] was 4.41 µM. The GI50 [7] was > 100 µM, the TGI [7] was > 100 µM and the GI50 [8] was 2.33 µM. For the same molecule, the TGI [8] was 6.47 µM, the GI50 [9] was 2.83 µM and the TGI [9] was 9.2 µM. It also gave a GI50 [10] of 1.77 µM and a TGI [10] of 3.61 µM.

With `C=C1C(=O)O[C@H]2[C@H]1CC/C(COC(=O)c1cn(C)c3ccccc13)=C\CC[C@@]1(C)O[C@@H]21` the GI50 [1] was 2.39 µM, the TGI [1] was 9.47 µM and the GI50 [2] was 1.05 µM. For the same molecule, the TGI [2] was 2.47 µM, the GI50 [3] was 2.41 µM and the TGI [3] was 6.98 µM. The GI50 [4] was 1.32 µM, the TGI [4] was 2.65 µM and the GI50 [5] was 1.56 µM. The TGI [5] was 4.11 µM, the GI50 [6] was 0.217 µM and the TGI [6] was 0.94 µM. For the same molecule, the GI50 [7] was 0.228 µM, the TGI [7] was 0.81 µM and the GI50 [8] was 1.93 µM. The TGI [8] was 4.92 µM, the GI50 [9] was 2.15 µM and the TGI [9] was 14.2 µM. It also gave a GI50 [10] of 0.384 µM and a TGI [10] of 1.48 µM.

`COc1ccc(OC)c(NC(=O)c2cccc(NC3=C(Cl)C(=O)N(Cc4ccccc4)C3=O)c2)c1` was tested, and the GI50 [1] was > 100 µM, the TGI [1] was > 100 µM and the GI50 [2] was > 35.7 µM. For the same molecule, the TGI [2] was > 54.1 µM, the GI50 [3] was > 75.3 µM and the TGI [3] was > 100 µM. The GI50 [4] was 23.5 µM, the TGI [4] was > 100 µM and the GI50 [5] was > 73 µM. For the same molecule, the TGI [5] was > 100 µM, the TGI [6] was > 100 µM and the GI50 [7] was > 100 µM. The TGI [7] was > 100 µM, the GI50 [8] was > 70.8 µM and the TGI [8] was > 100 µM. For the same molecule, the GI50 [9] was > 67.8 µM, the TGI [9] was > 100 µM and the GI50 [10] was > 100 µM. The TGI [10] was > 100 µM.

`Cc1c(N)nc([C@H](CC(N)=O)NC[C@H](N)C(N)=O)nc1C(=O)N[C@H](C(=O)N[C@H](C)[C@@H](O)CC(=O)N[C@H](C(=O)NC(O[C@@H]1O[C@@H](C)[C@@H](N)[C@@H](O)[C@H]1O)C(O)c1nc(-c2nc(C(=O)NCCCCN)cs2)cs1)[C@@H](C)O)[C@@H](O[C@@H]1O[C@@H](CO)[C@@H](O)[C@H](O)[C@@H]1O[C@H]1O[C@H](CO)[C@@H](O)[C@H](OC(N)=O)[C@@H]1O)c1c[nH]cn1` (stereo partly specified) was tested, and the TGI [1] was > 50 µM, the TGI [2] was > 50 µM and the TGI [3] was > 50 µM. The TGI [4] was > 50 µM, the TGI [5] was > 50 µM and the TGI [6] was > 50 µM. For the same molecule, the TGI [7] was > 50 µM, the TGI [8] was > 50 µM and the TGI [9] was > 50 µM. For the same molecule, the TGI [10] was > 50 µM.

`CC(CN1CC(=O)NC(=O)C1)N1CC(=O)NC(=O)C1` (stereo unspecified) was tested, and the TGI [1] was > 391 µM, the TGI [2] was > 750 µM and the TGI [3] was > 750 µM. The TGI [4] was > 750 µM, the TGI [5] was 749 µM and the TGI [6] was > 662 µM. For the same molecule, the TGI [7] was > 750 µM, the TGI [8] was > 750 µM and the TGI [9] was > 698 µM. For the same molecule, the TGI [10] was 701 µM.
